{"source": "patent US10766888B1", "about": "“HMOX1 inducers” (Mitobridge Inc., priority 2019, dated 2020)", "note": "Where a name gives a salt, the structure may show the parent alone."}
{"test_system": "Human Heme Oxygenase-1 (HMOX-1)", "assay": "ELISA assay to measure human heme oxygenase-1 (HMOX-1) in HepG2 lysate", "type": "cell-based", "settings": "fold change of human HMOX1 protein level relative to DMSO control, HepG2", "experimental": "(§1) Example 143. ELISA Assay to Measure Human Heme Oxygenase-1 (HMOX-1) in HepG2 lysate\n(§2) Reagents and Technical Notes:\n(§3) ELISA capture antibody, standard HO-1, detection antibody and streptavidin HRP were supplied in the DuoSet IC Human total HO-1 ELISA from R&D systems (DYC3776-2). The substrate cocktail was KPL LumiGLO reserve Chemiluminescent Substrate (54-71-00). PBS was Corning Cellgro Cell Culture (21-040-CV). 10×PBS+0.05% tween20 (PBST) was from KPL.\n(§4) All incubations of the plate were at room temperature (20° C.) in a closed drawer.\n(§5) The ELISA plate was processed manually. All loadings were with a multichannel pipet. Plates were emptied by shaking into the sink and tapping onto paper towels to remove any remaining reagent. Plate washing was accomplished by loading all wells with PBS+0.05% tween20 (PBST) using a squirt bottle, shaking the PBST out and tapping the plate onto paper towels.\n(§6) Preparation of the ELISA Plate:\n(§7) • 1. anti-HO-1 capture antibody was 1440 μg/ml after reconstitution in PBS. This antibody was diluted to 8 μg/ml in PBS and 50 μl per well was added to a 384 well greiner “lumitrac 200” plate. Incubated overnight. • 2. The plate was emptied and 100 μl PBS+1% BSA added to all wells. Incubated 90 minutes at room temperature. Preparation of HepG2 Lysate: • 1. Cells were cultured in a 96-well tissue culture plate washed with PBS and then the plate frozen at −70° C. overnight. Plates were allowed to warm to ice temperature in an ice bucket. 20 μl of PBS, 0.5% Triton X100, 1 mM EDTA with 1×HALT™ protease inhibitors was added to each well and the plates incubated on ice for 1 hour. • 2. The lysates were frozen at −20° C. overnight. Measurement of HMOX1 (“HO-1”) • 1. In a polypropylene 384 well plate, human HO-1 (after reconstitution in PBS+0.5% Triton+1 mM EDTA) was serially diluted from 20 ng/ml 2-fold in PBS+0.5% triton-X100, 1 mM EDTA to make a 12-point standard curve including a zero point. • 2. In a polypropylene 96 well plate, HepG2 lysate was diluted 1 to 20 in Diluent #4 from DUOSET kit in which the assay standard is also diluted. • 3. The PBS+1% BSA was emptied from the ELISA plate and 30 μl of all samples and standards were added (duplicates recommended). The plate was incubated 90 minutes. • 4. Emptied plate and washed 4 times with PBST. • 5. Diluted HO-1 detection antibody to 200 ng/ml in PBS+1% BSA and added 30 μl to all wells. Incubated 90 minutes. • 6. Emptied plate and washed 4 times with PBST. • 7. Added 30 μl streptavidin HRP at 1/200 in PBS+1% BSA (stock streptavidin concentration not specified) to all wells. Incubated 30 minutes. • 8. Emptied plate and washed 4 times with PBST. • 9. Diluted Lumiglo reserve reagent two parts buffer to one part lumiglo substrate. Added 30 μl to all wells. Incubated 5 minutes. • 10. Measured chemiluminescence on spectramax M5 using 150 ms integration.\n(§8) Table 1 below lists EC50 and fold changes of human HMOX1 protein levels relative to DMSO control upon treatment with representative compounds.", "units": {"Maximum Fold induction": "fold"}}
{"molecule": "COCCNC(=O)c1ccc2c(c1)nc(Nc1nc3cc(C)ccc3o1)n2C", "note": "[Example 65, N-(2-methoxyethyl)-1-methyl-2-((5-methylbenzo[d]oxazol-2-yl)amino)-1H-benzo[d]imidazole-5-carboxamide]", "Maximum Fold induction": 15.42}
{"test_system": "Human Heme Oxygenase-1 (HMOX-1)", "assay": "ELISA assay to measure human heme oxygenase-1 (HMOX-1) in HepG2 lysate", "type": "cell-based", "settings": "human HMOX1 protein level in HepG2 lysate; * = average of 2 or more EC50 determinations; NA = Not Active; read-out: EC50", "experimental": "as §1, §2, §3, §4, §5, §6, §7, §8", "units": {"EC50": "µM"}}
{"molecule": "CC(C)C(N)C(=O)OCCOCCNC(=O)c1ccc2c(c1)nc(Nc1nc3ccccc3o1)n2C.Cl", "note": "(racemic) [Example 30, 2-(2-(2-(benzo[d]oxazol-2-ylamino)-1-methyl-1H-benzo[d]imidazole-5-carboxamido)ethoxy)ethyl DL-valinate hydrochloride]", "EC50": 3.5}
{"molecule": "CC(O)CNC(=O)c1ccc2c(c1)nc(Nc1nc3ccc(C(F)(F)F)cc3o1)n2C", "note": "(stereo not shown) [Example 35, N-(2-hydroxypropyl)-1-methyl-2-((6-(trifluoromethyl)benzo[d]oxazol-2-yl)amino)-1H-benzo[d]imidazole-5-carboxamide]", "EC50": 1.2}
{"molecule": "COCCONC(=O)c1ccc2c(c1)nc(Nc1nc3ccc(OC(F)(F)F)cc3o1)n2C", "note": "[Example 127, N-(2-methoxyethoxy)-1-methyl-2-((6-(trifluoromethoxy)benzo[d]oxazol-2-yl)amino)-1H-benzo[d]imidazole-5-carboxamide]", "EC50": 0.5}
{"molecule": "Cn1c(Nc2nc3cc(F)ccc3o2)nc2cc(C(=O)O)ccc21", "note": "[Example 66, 2-((5-fluorobenzo[d]oxazol-2-yl)amino)-1-methyl-1H-benzo[d]imidazole-5-carboxylic acid]", "EC50": 5.4}
{"molecule": "CN1CCC(n2c(Nc3nc4ccc(OC(F)(F)F)cc4s3)nc3cc(C(=O)O)ccc32)CC1", "note": "[Example 3d, 1-(1-methylpiperidin-4-yl)-2-((6-(trifluoromethoxy)benzo[d]thiazol-2-yl)amino)-1H-benzo[d]imidazole-5-carboxylic acid]", "EC50": 9.2}
{"molecule": "Cn1c(Nc2nc3ccc(OCCO)cc3o2)nc2cc(C(=O)NCCN)ccc21", "note": "[Example 105, N-(2-aminoethyl)-2-((6-(2-hydroxyethoxy)benzo[d]oxazol-2-yl)amino)-1-methyl-1H-benzo[d]imidazole-5-carboxamide hydrochloride]", "EC50": 4.1}
{"molecule": "Cn1c(Nc2nc3ccc(OC4CCOCC4)cc3o2)nc2cc(C(=O)NCCOCCO)ccc21", "note": "[Example 138, N-(2-(2-hydroxyethoxy)ethyl)-1-methyl-2-((6-((tetrahydro-2H-pyran-4-yl)oxy)benzo[d]oxazol-2-yl)amino)-1H-benzo[d]imidazole-5-carboxamide]", "EC50": 2}
{"molecule": "Cn1c(Nc2nc3cc(C(=O)O)ccc3n2C)nc2cc(OC(F)(F)F)ccc21", "note": "[Example 15, 1-methyl-2-((1-methyl-5-(trifluoromethoxy)-1H-benzo[d]imidazol-2-yl)amino)-1H-benzo[d]imidazole-5-carboxylic acid]", "EC50": 5.3}
{"molecule": "COCCNC(=O)c1ccc2c(c1)nc(Nc1nc3ccc(OC(F)(F)F)cc3o1)n2CCS(C)(=O)=O", "note": "[Example 90, N-(2-methoxyethyl)-1-(2-(methylsulfonyl)ethyl)-2-((6-(trifluoromethoxy)benzo[d]oxazol-2-yl)amino)-1H-benzo[d]imidazole-5-carboxamide]", "EC50": 4.8}
{"molecule": "COCCNC(=O)c1ccc2c(c1)nc(Nc1nc3ccc(C4CC4)cc3o1)n2C", "note": "[Example 116, 2-((6-cyclopropylbenzo[d]oxazol-2-yl)amino)-N-(2-methoxyethyl)-1-methyl-1H-benzo[d]imidazole-5-carboxamide]", "EC50": 3}
{"molecule": "COCCNC(=O)c1ccc2c(c1)nc(Nc1nc3cc(C)ccc3o1)n2C", "note": "[Example 65, N-(2-methoxyethyl)-1-methyl-2-((5-methylbenzo[d]oxazol-2-yl)amino)-1H-benzo[d]imidazole-5-carboxamide]", "EC50": 1.2}
{"molecule": "CCn1c(Nc2nc3ccc(OC(F)(F)F)cc3o2)nc2cc(C(=O)O)ccc21", "note": "[Example 84, 1-ethyl-2-((6-(trifluoromethoxy)benzo[d]oxazol-2-yl)amino)-1H-benzo[d]imidazole-5-carboxylic acid]", "EC50": 5.4}
{"molecule": "COCCNC(=O)c1ccc2c(c1)nc(Nc1nc3ccc(OC(F)(F)F)cc3s1)n2C1CCN(C)CC1", "note": "[Example 3e, N-(2-methoxyethyl)-1-(1-methylpiperidin-4-yl)-2-((6-(trifluoromethoxy)benzo[d]thiazol-2-yl)amino)-1H-benzo[d]imidazole-5-carboxamide]", "EC50": 1.1}
{"molecule": "Cn1c(Nc2nc3ccccc3o2)nc2cc(C(O)C(F)(F)F)ccc21", "note": "(stereo not shown) [Example 142, 1-(2-(benzo[d]oxazol-2-ylamino)-1-methyl-1H-benzo[d]imidazol-5-yl)-2,2,2-trifluoroethan-1-ol]", "EC50": 3.3}
{"molecule": "CC(C)c1ccc2nc(Nc3nc4cc(C(=O)O)ccc4n3C)oc2c1", "note": "[Example 59, 2-((6-isopropylbenzo[d]oxazol-2-yl)amino)-1-methyl-1H-benzo[d]imidazole-5-carboxylic acid]", "EC50": 3.3}
{"molecule": "COCCNC(=O)c1ccc2c(c1)nc(Nc1nc3cc(Cl)ccc3[nH]1)n2C", "note": "[Example 83, 2-((5-chloro-1H-benzo[d]imidazol-2-yl)amino)-N-(2-methoxyethyl)-1-methyl-1H-benzo[d]imidazole-5-carboxamide]", "EC50": 1.8}
{"test_system": "not listed separately", "assay": "Kinetic solubility", "type": "physicochemical", "settings": "Dulbecco's phosphate buffer saline (DPBS), aqueous buffer, kinetic from dmso stock, DPBS pH 7.4, 25° C., 200 μM test compound", "experimental": "Example 144. Kinetic Solubility\n10 μL of 10 mM DMSO stock solution were aliquotted to 490 μL of DMSO solution and separately 490 μL of Dulbecco's phosphate buffer saline, DPBS, pH 7.4 solution in 1.2 mL 96-well plates in duplicate. Final concentration was 200 μM of the test compound. Samples were incubated at 25° C. with shaking at 200 rpm for 16 h. Samples were centrifuged at 3500 rpm for 20 min at 25° C., and supernatant was submitted for HPLC analysis.\nKinetic solubility was measured using the following equation: […]", "units": {"solubility at 16 h": "µM"}}
{"molecule": "CC(C)C(N)C(=O)OCCOCCNC(=O)c1ccc2c(c1)nc(Nc1nc3ccccc3o1)n2C.Cl", "note": "(racemic) [Example 30, 2-(2-(2-(benzo[d]oxazol-2-ylamino)-1-methyl-1H-benzo[d]imidazole-5-carboxamido)ethoxy)ethyl DL-valinate hydrochloride]", "solubility at 16 h": 3.2}
{"molecule": "CC(=O)N1CCc2nc(Nc3nc4cc(C(=O)NCCOCCO)ccc4n3C)sc2C1", "note": "[Example 10, 2-((5-acetyl-4,5,6,7-tetrahydrothiazolo[5,4-c]pyridin-2-yl)amino)-N-(2-(2-hydroxyethoxy)ethyl)-1-methyl-1H-benzo[d]imidazole-5-carboxamide]", "solubility at 16 h": 8.6}
{"molecule": "CC(O)CNC(=O)c1ccc2c(c1)nc(Nc1nc3ccc(C(F)(F)F)cc3o1)n2C", "note": "(stereo not shown) [Example 35, N-(2-hydroxypropyl)-1-methyl-2-((6-(trifluoromethyl)benzo[d]oxazol-2-yl)amino)-1H-benzo[d]imidazole-5-carboxamide]", "solubility at 16 h": "< 2"}
{"molecule": "COCCONC(=O)c1ccc2c(c1)nc(Nc1nc3ccc(OC(F)(F)F)cc3o1)n2C", "note": "[Example 127, N-(2-methoxyethoxy)-1-methyl-2-((6-(trifluoromethoxy)benzo[d]oxazol-2-yl)amino)-1H-benzo[d]imidazole-5-carboxamide]", "solubility at 16 h": "< 2"}
{"molecule": "Cn1c(Nc2nc3ccccc3o2)nc2cc(C(=O)NCC(O)CO)ccc21", "note": "(stereo not shown) [Example 24, 2-(benzo[d]oxazol-2-ylamino)-N-(2,3-dihydroxypropyl)-1-methyl-1H-benzo[d]imidazole-5-carboxamide]", "solubility at 16 h": 12.4}
{"molecule": "Cn1c(Nc2nc3ccc(C(F)(F)F)nc3o2)nc2cc(C(=O)NCCO)ccc21", "note": "[Example 113, N-(2-hydroxyethyl)-1-methyl-2-((5-(trifluoromethyl)oxazolo[5,4-b]pyridin-2-yl)amino)-1H-benzo[d]imidazole-5-carboxamide]", "solubility at 16 h": 9.1}
{"molecule": "Cn1c(Nc2nc3nccnc3s2)nc2cc(C(=O)NCCOCCO)ccc21", "note": "[Example 114, N-(2-(2-hydroxyethoxy)ethyl)-1-methyl-2-(thiazolo[4,5-b]pyrazin-2-ylamino)-1H-benzo[d]imidazole-5-carboxamide]", "solubility at 16 h": 12.2}
{"molecule": "Cn1c(Nc2nc3ccc(C(F)(F)F)cc3o2)nc2cc(C(=O)NCCN3CCCCC3)ccc21", "note": "[Example 37, 1-methyl-N-(2-(piperidin-1-yl)ethyl)-2-((6-(trifluoromethyl)benzo[d]oxazol-2-yl)amino)-1H-benzo[d]imidazole-5-carboxamide]", "solubility at 16 h": "< 2"}
{"molecule": "Cn1c(Nc2nc3ccccc3o2)nc2cc(C(=O)NCCOCC(C)(C)O)ccc21", "note": "[Example 27, 2-(benzo[d]oxazol-2-ylamino)-N-(2-(2-hydroxy-2-methylpropoxy)ethyl)-1-methyl-1H-benzo[d]imidazole-5-carboxamide]", "solubility at 16 h": 10.6}
{"molecule": "Cn1cc(NC(=O)c2ccc3c(c2)nc(Nc2nc4ccc(OC(F)(F)F)cc4o2)n3C)cn1", "note": "[Example 50, 1-methyl-N-(1-methyl-1H-pyrazol-4-yl)-2-((6-(trifluoromethoxy)benzo[d]oxazol-2-yl)amino)-1H-benzo[d]imidazole-5-carboxamide]", "solubility at 16 h": 4}
{"molecule": "Cn1c(Nc2nc3ccccc3o2)nc2cc(C(=O)NCCOCC(=O)O)ccc21", "note": "[Example 29, 2-(2-(2-(benzo[d]oxazol-2-ylamino)-1-methyl-1H-benzo[d]imidazole-5-carboxamido)ethoxy)acetic acid]", "solubility at 16 h": 19.3}
